Results reported in patent publication US20230073777A1, “CYCLIC-AMP RESPONSE ELEMENT BINDING PROTEIN (CBP) AND/OR ADENOVIRAL E1A BINDING PROTEIN OF 300 KDA (P300) DEGRADATION COMPOUNDS AND METHODS OF USE” (CULLGEN (SHANGHAI), INC., priority 2019, published 2023).

The compounds below were run on LNCaP cells (assay: LNCaP cell viability assay (CellTiter-Glo)). Conditions: Homo sapiens, 72 h; LNCaP prostate cancer cell viability inhibition, 3 days, CellTiter-Glo (Table 2).
Type: cell-based
Experimental: LNCaP cells seeded in 96-well plates were treated with 10 μM GNE-781 or selected bivalent compounds, i.e. P-001, P-002, and P-019, following a 12-point 3-fold serial dilution. Three days after treatment, cell viability was determined using the CellTiter-Glo kit (Promega) following manufacturer's instructions. Cell viability was normalized to the mean values of 3 replicates of untreated cells. Dose-dependent response was analyzed following the least-squares non-linear regression method using the GraphPad Prism 5.0 software.
LNCaP cells were treated with GNE-781 or selected bivalent compounds for 3 days at indicated concentrations following a 3-fold serial dilution.
Cells were seeded at a density of 5000 cells per well in 96-well assay plates and treated with test compounds following a 12-point 3-fold serial dilution. Three days later, cell viability was determined using the CellTiter-Glo assay kit according to the manufacturer's instructions. The dose-response curves were determined and IC50 values were calculated using the GraphPad Prism software following a nonlinear regression (least squares fit) method.

Compound	IC50 [nM]
CNC(=O)N1CCc2c(c(N3CCCc4cc(-c5cnn(C)c5)c(C(F)F)cc43)nn2C2CCN(C(=O)CNc3cccc4c3C(=O)N(C3CCC(=O)NC3=O)C4=O)CC2)C1 (stereo not drawn) [P-013]	105

Same assay, conditions: Homo sapiens, 72 h; LNCaP prostate cancer cell viability inhibition, 3 days, CellTiter-Glo (Table 3)

Compound	IC50 [nM]
CC(=O)N1CCc2c(c(N3CCCc4cc(-c5cnn(C)c5)c(C(F)F)cc43)nn2C2CCN(CCCCCC(=O)Nc3cccc4c3C(=O)N(C3CCC(=O)NC3=O)C4=O)CC2)C1 (stereo not drawn) [P-136, 6-(4-(5-Acetyl-3-(7-(difluoromethyl)-6-(1-methyl-1H-pyrazol-4-yl)-3,4-dihydroquinolin-1(2H)-yl)-4,5,6,7-tetrahydro-1H-pyrazolo[4,3-c]pyridin-1-yl)piperidin-1-yl)-N-(2-(2,6-dioxopiperidin-3-yl)-1,3-dioxoisoindolin-4-yl)hexanamide]	> 500
CNC(=O)N1CCc2c(c(N3CCCc4cc(-c5cnn(C)c5)c(C(F)F)cc43)nn2C2CCN(CCCCCC#Cc3cccc4c3C(=O)N(C3CCC(=O)NC3=O)C4=O)CC2)C1 (stereo not drawn) [P-098, 3-(7-(Difluoromethyl)-6-(1-methyl-1H-pyrazol-4-yl)-3,4-dihydroquinolin-1(2H)-yl)-1-(1-(7-(2-(2,6-dioxopiperidin-3-yl)-1,3-dioxoisoindolin-4-yl)hept-6-yn-1-yl)piperidin-4-yl)-N-methyl-1,4,6,7-tetrahydro-5H-pyrazolo[4,3-c]pyridine-5-carboxamide]	1070
CNC(=O)N1CCc2c(c(N3CCCc4cc(-c5cnn(C)c5)c(C(F)F)cc43)nn2C2CCN(C(=O)CN3CCC(Nc4cccc5c4C(=O)N(C4CCC(=O)NC4=O)C5=O)CC3)CC2)C1 (stereo not drawn) [P-101, 3-(7-(Difluoromethyl)-6-(1-methyl-1H-pyrazol-4-yl)-3,4-dihydroquinolin-1(2H)-yl)-1-(1-(2-(4-((2-(2,6-dioxopiperidin-3-yl)-1,3-dioxoisoindolin-4-yl)amino)piperidin-1-yl)acetyl)piperidin-4-yl)-N-methyl-1,4,6,7-tetrahydro-5H-pyrazolo[4,3-c]pyridine-5-carboxamide]	> 1000
CC(=O)N1CCc2c(c(N3CCCc4cc(-c5cnn(C)c5)c(C(F)F)cc43)nn2C2CCN(C3CCN(CCOc4cccc5c4C(=O)N(C4CCC(=O)NC4=O)C5=O)CC3)CC2)C1 (stereo not drawn) [P-134, 4-(2-(4-(5-Acetyl-3-(7-(difluoromethyl)-6-(1-methyl-1H-pyrazol-4-yl)-3,4-dihydroquinolin-1(2H)-yl)-4,5,6,7-tetrahydro-1H-pyrazolo[4,3-c]pyridin-1-yl)-[1,4′-bipiperidin]-1′-yl)ethoxy)-2-(2,6-dioxopiperidin-3-yl)isoindoline-1,3-dione]	> 500
CC(=O)N1CCc2c(c(N3CCCc4cc(-c5cnn(C)c5)c(C(F)F)cc43)nn2C2CCN(C3CCN(CCCOc4cccc5c4C(=O)N(C4CCC(=O)NC4=O)C5=O)CC3)CC2)C1 (stereo not drawn) [P-139, 4-(3-(4-(5-Acetyl-3-(7-(difluoromethyl)-6-(1-methyl-1H-pyrazol-4-yl)-3,4-dihydroquinolin-1(2H)-yl)-4,5,6,7-tetrahydro-1H-pyrazolo[4,3-c]pyridin-1-yl)-[1,4′-bipiperidin]-1′-yl)propoxy)-2-(2,6-dioxopiperidin-3-yl)isoindoline-1,3-dione]	> 500
CNC(=O)N1CCc2c(c(N3CCCc4cc(-c5cnn(C)c5)c(C(F)F)cc43)nn2C2CCN(CCN3CCN(Cc4cccc5c4C(=O)N(C4CCC(=O)NC4=O)C5=O)CC3)CC2)C1 (stereo not drawn) [P-144, 3-(7-(Difluoromethyl)-6-(1-methyl-1H-pyrazol-4-yl)-3,4-dihydroquinolin-1(2H)-yl)-1-(1-(2-(4-((2-(2,6-dioxopiperidin-3-yl)-1,3-dioxoisoindolin-4-yl)methyl)piperazin-1-yl)ethyl)piperidin-4-yl)-N-methyl-1,4,6,7-tetrahydro-5H-pyrazolo[4,3-c]pyridine-5-carboxamide]	> 1000
CNC(=O)N1CCc2c(c(N3CCCc4cc(-c5cnn(CC(=O)NCCOCCOCCOCCOCCOCCC(=O)N[C@H](C(=O)N6C[C@H](O)CC6C(=O)NCc6ccc(-c7scnc7C)cc6)C(C)(C)C)c5)c(C(F)F)cc43)nn2C2CCOCC2)C1 (stereo in doubt) [P-082, 3-(7-(Difluoromethyl)-6-(1-((S)-23-((2S,4R)-4-hydroxy-2-((4-(4-methylthiazol-5-yl)benzyl)carbamoyl)pyrrolidine-1-carbonyl)-24,24-dimethyl-2,21-dioxo-6,9,12,15,18-pentaoxa-3,22-diazapentacosyl)-1H-pyrazol-4-yl)-3,4-dihydroquinolin-1(2H)-yl)-N-methyl-1-(tetrahydro-2H-pyran-4-yl)-1,4,6,7-tetrahydro-5H-pyrazolo[4,3-c]pyridine-5-carboxamide]	> 10000
CNC(=O)N1CCc2c(c(N3CCCc4cc(-c5cnn(C)c5)c(C(F)F)cc43)nn2C2CCN(C(=O)CCCCC#Cc3cccc4c3C(=O)N(C3CCC(=O)NC3=O)C4)CC2)C1 (stereo not drawn) [P-094, 3-(7-(Difluoromethyl)-6-(1-methyl-1H-pyrazol-4-yl)-3,4-dihydroquinolin-1(2H)-yl)-1-(1-(7-(2-(2,6-dioxopiperidin-3-yl)-3-oxoisoindolin-4-yl)hept-6-ynoyl)piperidin-4-yl)-N-methyl-1,4,6,7-tetrahydro-5H-pyrazolo[4,3-c]pyridine-5-carboxamide]	228
CC(=O)N1CCc2c(c(N3CCCc4cc(-c5cnn(C)c5)c(C(F)F)cc43)nn2C2CCN(C(=O)CN3CCN(Cc4cccc5c4C(=O)N(C4CCC(=O)NC4=O)C5=O)CC3)CC2)C1 (stereo not drawn) [P-138, 4-((4-(2-(4-(5-Acetyl-3-(7-(difluoromethyl)-6-(1-methyl-1H-pyrazol-4-yl)-3,4-dihydroquinolin-1(2H)-yl)-4,5,6,7-tetrahydro-1H-pyrazolo[4,3-c]pyridin-1-yl)piperidin-1-yl)-2-oxoethyl)piperazin-1-yl)methyl)-2-(2,6-dioxopiperidin-3-yl)isoindoline-1,3-dione]	> 500
CNC(=O)N1CCc2c(c(N3CCCc4cc(-c5cnn(C)c5)c(C(F)F)cc43)nn2C2CCN(C(=O)CN3CCC(C#Cc4cccc5c4C(=O)N(C4CCC(=O)NC4=O)C5=O)CC3)CC2)C1 (stereo not drawn) [P-103, 3-(7-(Difluoromethyl)-6-(1-methyl-1H-pyrazol-4-yl)-3,4-dihydroquinolin-1(2H)-yl)-1-(1-(2-(4-((2-(2,6-dioxopiperidin-3-yl)-1,3-dioxoisoindolin-4-yl)ethynyl)piperidin-1-yl)acetyl)piperidin-4-yl)-N-methyl-1,4,6,7-tetrahydro-5H-pyrazolo[4,3-c]pyridine-5-carboxamide]	146
CNC(=O)N1CCc2c(c(N3CCCc4cc(-c5cnn(C)c5)c(C(F)F)cc43)nn2C2CCN(C(=O)CN3CCN(Cc4cccc5c4C(=O)N(C4CCC(=O)NC4=O)C5=O)CC3)CC2)C1 (stereo not drawn) [P-137, 3-(7-(Difluoromethyl)-6-(1-methyl-1H-pyrazol-4-yl)-3,4-dihydroquinolin-1(2H)-yl)-1-(1-(2-(4-((2-(2,6-dioxopiperidin-3-yl)-1,3-dioxoisoindolin-4-yl)methyl)piperazin-1-yl)acetyl)piperidin-4-yl)-N-methyl-1,4,6,7-tetrahydro-5H-pyrazolo[4,3-c]pyridine-5-carboxamide]	> 500
